Data reported in patent US4875922A, “Pyrimidine derivatives” (Imperial Chemical Industries PLC, priority 1986, dated 1989).
Where two headings read alike, the source gives them in different places.

Key:
Barley [1] = assay: Whole plant screen for plant growth regulator activity, barley (BR); type: in vivo, Barley (Atem); details: BR, 4000 ppm (4 kg/ha), visual score after 2-6 weeks; for T = Tillering or side shooting: * = decrease in tillering
Procedure, shortened: (§1)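 Plants were sprayed with compound at 4000 ppm (4 kg/ha in a 1000 l/ha field volume) by tracksprayer and kept in a glasshouse under a 16 h photoperiod: maize and rice at 25° C. day/22° C. night, wheat and barley at 16° C. day/13° C. night. Morphology was scored visually after 2-6 weeks against formulation blanks.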

Wheat = assay: Whole plant screen for plant growth regulator activity, wheat (WW); type: in vivo, Wheat (Timmo); details: WW, 4000 ppm (4 kg/ha), visual score after 2-6 weeks; for T = Tillering or side shooting: * = decrease in tillering
Procedure, shortened: as §1

Tomato = assay: Whole plant screen for plant growth regulator activity, tomato (TO); type: in vivo, Tomato (Ailsa Craig); details: 4000 ppm (4 kg/ha), visual score after 2-6 weeks
Procedure, shortened: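 Tomato (Ailsa Craig), one plant per 3-inch peat pot, sprayed at 2–2½ leaves with 4000 ppm (4 kg/ha in 1000 l/ha) by track sprayer. Glasshouse 25 °C day/22 °C night, 16 h photoperiod; morphology visually scored after 2–6 weeks against formulation blanks.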

Barley [2] = assay: Modified Intermediate Retardant Test, barley; type: in vivo, Barley (Atem); details: 2000 g/ha, overall spray, height to topmost ligule 21 days after treatment
Excerpt: (§2) The general Intermediate Retardant Test described in Example 62 was modified by the addition of Sunflowers (SR) and the variety and growth stages at spray are outlined in Table XIII. Apart from the changes indicated, growing conditions for barley, rice and apples were as in Example 62 and growing conditions for Sunflower were as for apples. Test compounds were applied to barley, rice and apples as whole plant (overall) sprays at a rate of 2000 g/ha. Test compounds were applied to sunflowers separately as a foliar only spray at a rate of 2000 g/ha and as a root drench at a rate of 2000 g/ha.
(§3) Barley and rice were assessed for height to topmost ligule 21 days after treatment; apples were assessed for height to apex at 21 days after treatment; and sunflowers were assessed for height to apex at 14 days after treatment. The results are expressed as percentage reduction in height compared with the formulation blank in Table XIV.

Rice [3] = assay: Modified Intermediate Retardant Test, rice; type: in vivo, Rice (Ishikari); details: 2000 g/ha, overall spray, height to topmost ligule 21 days after treatment
Excerpt: as §2, §3

Apple [4] = assay: Modified Intermediate Retardant Test, apples; type: in vivo, Apple (Red Delicious); details: 2000 g/ha, overall spray, height to apex 21 days after treatment
Excerpt: as §2, §3

Sunflower = assay: Modified Intermediate Retardant Test, sunflower; type: in vivo; details: 2000 g/ha, height to apex 14 days after treatment
Excerpt: as §2, §3

Rice [5] = assay: Whole plant screen for plant growth regulator activity, rice (RC); type: in vivo, Rice (Ishikari); details: 4000 ppm (4 kg/ha), visual score after 2-6 weeks; for T = Tillering or side shooting: * = decrease in tillering
Procedure, shortened: as §1

Maize = assay: Whole plant screen for plant growth regulator activity, maize (MZ); type: in vivo, Maize (Earliking); details: 4000 ppm (4 kg/ha), visual score after 2-6 weeks
Protocol: Compounds 1 to 3 in Table 1 were tested for plant growth regulator activity against five species for various growth effects relevant to plant growth regulation.
The plant species used in this screen are presented in Table II with the leaf stage at which they were sprayed. Each chemical was applied at 4000 ppm (4 kg/ha in a 1000 l/ha field volume) using a tracksprayer and a SS8004E (Teejet) nozzle.
After spray the plants were grown in a glasshouse with 25° C. day/22° C. night temperatures and supplementary lighting was supplied when necessary (from mercury vapour lamps), to provide a 16 hour photoperiod. The exception to this were the temperate cereals, wheat and barley which were grown in 16° C. day/13° C. night temperatures.
After 2-6 weeks in the glasshouse, depending on the time of year, the plants were visually assessed for morphological characteristics. Formulation blanks were used as controls to assess the plants. […]

Apple [6] = assay: Whole plant screen for plant growth regulator activity, apple (AP); type: in vivo, Apple (Red Delicious); details: 4000 ppm (4 kg/ha), visual score after 2-6 weeks
Procedure, shortened: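 Growth-regulator effects were judged by eye on glasshouse plants 2-6 weeks post-spray (timing varying with season), using formulation blanks for comparison. Application rate was 4000 ppm, equivalent to 4 kg/ha in 1000 l/ha.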

Rice [7] = assay: Intermediate Retardant Test, rice; type: in vivo, Rice (Ishikari); details: Oryza sativa, 672 h, read-out: Percentage Reduction in Height of Rice (Compared to formulation blank)
Excerpt: (§4) Three species are involved in this test RICE, SPRING-BARLEY and APPLES. The variety and growth stages at spray are outlined in Table V. Compounds were applied at 500 ppm and 2000 ppm respectively (0.5 kg and 2 kg/ha^-1 at a field volume of 1000 l/ha^-1) as an overall spray except in the case of certain tests on APPLES. This gives a foliar and root component in the test, i.e., this test will detect the activity of both root and foliar acting compounds. The intermediate retardant test on APPLES of which the results are given in Table IX was different, in that a foliar (only) spray at 2000 ppm was compared with a root drench, also at 2000 ppm. The rice was grown in 4" `paddy` pots, i.e., the roots and bottom of the stems are immersed in water under conditions corresponding to those in paddy fields. Spring barley and apples were grown in 4" pots. The plants were assessed for height to top-most ligule at approximately 28 days after treatment for spring barley and rice and for height to apex at approximately 28 days after the treatment for apples. In each case the result for the 500 ppm and 2000 ppm test for each compound is compared to the height of the formulation blank in that test, presented as a percentage reduction in height compared to the formulation blank.
(§5) The prior art compound was compared with compounds of the present invention in side-by-side comparisons using the Intermediate Retardant Test described in Example 62, and the results are given in Tables X to XII where `A` is the prior art compound, 2-methyl-1-isopropyl-1-(pyrimidin-5-yl)-propan-1-ol).

Spring Barley = assay: Intermediate Retardant Test, spring barley; type: in vivo, Spring Barley (Atem/kym); details: Hordeum vulgare, 672 h, read-out: Percentage Reduction in Height of Spring Barley (Compared to formulation blank)
Excerpt: as §4, §5

Apples [8] = assay: Intermediate Retardant Test, apples, foliar spray compared with root drench; type: in vivo, Apples (Red Delicious); details: 672 h, read-out: Percentage Reduction in Height of Apples (Compared to formulation blank)
Excerpt: as §4, §5

Apples [9] = assay: Intermediate Retardant Test, apples, overall spray; type: in vivo, Apples (Red Delicious); details: approximately 28 days, Table VIII
Excerpt: as §4

[10] = overall spray, approximately 28 days, Table VI
[11] = overall spray, approximately 28 days, Table VII
[12] = side-by-side comparison with prior art compound, Table X
[13] = side-by-side comparison with prior art compound, Table XI
[14] = 2000 ppm (Foliar), side-by-side comparison with prior art compound, Table XII
[15] = 2000 ppm (Root), side-by-side comparison with prior art compound, Table XII

| Structure (SMILES) | G = Greening effect (Barley [1]) | I = Interligular or internodal length reduction (Barley [1]) | R = Retardation (Barley [1]) | T = Tillering or side shooting (Barley [1]) | G = Greening effect (Wheat) | R = Retardation (Wheat) | G = Greening effect (Tomato) | R = Retardation (Tomato) | I = Interligular or internodal length reduction (Wheat) | T = Tillering or side shooting (Wheat) | G = Greening effect (Rice [5]) | I = Interligular or internodal length reduction (Rice [5]) | R = Retardation (Rice [5]) | A = Apical damage (Maize) | G = Greening effect (Apple [6]) | I = Interligular or internodal length reduction (Apple [6]) | R = Retardation (Apple [6]) | Percent reduction in rice height vs formulation blank at 500 ppm (Rice [7]; [10]) | Percent reduction in rice height vs formulation blank at 2000 ppm (Rice [7]; [10]) | percent reduction in plant height at 2000 ppm (Spring Barley; [11]) | further results |
| --- | --- | --- | --- | --- | --- | --- | --- | --- | --- | --- | --- | --- | --- | --- | --- | --- | --- | --- | --- | --- | --- |
| CCCCCC#CC(O)(c1cncnc1)C(C)C (stereo not shown) [Compound 23] | 2 (31-60%) | 3 (61-100%) | 3 (61-100%) | 1 (10-30%) | 2 (31-60%) | 2 (31-60%) | 2 (31-60%) | 2 (31-60%) | – | – | – | – | – | – | – | – | – | – | – | – | […] IN HEIGHT, BR (Barley [2]): 29%; […] IN HEIGHT, RC (Rice [3]): 54%; […] IN HEIGHT, AP (Apple [4]): 50%; […] IN HEIGHT, SR (Foliar) (Sunflower; foliar only spray): 2%; […] IN HEIGHT, SR (Root) (Sunflower; root drench): 45% |
| CCCC#CC(O)(c1cncnc1)C(C)(C)C (stereo not shown) [Compound 14, 2,2-Dimethyl-1-(pent-1-yne)-1-(pyrimidin-5yl)propan-1ol] | 2 (31-60%) | 3 (61-100%) | 3 (61-100%) | 3 (61-100%) | 2 (31-60%) | 3 (61-100%) | 2 (31-60%) | 3 (61-100%) | 3 (61-100%) | 3 (61-100%) | 2 (31-60%) | 2 (31-60%) | 3 (61-100%) | 1 (10-30%) | 3 (61-100%) | 3 (61-100%) | 3 (61-100%) | 63% | 76% | 68% | G = Greening effect (Maize): 2 (31-60%); I = Interligular or internodal length reduction (Maize): 3 (61-100%); R = Retardation (Maize): 2 (31-60%); T = Tillering or side shooting (Apple [6]; * = decrease in tillering): 1 (10-30%); I = Interligular or internodal length reduction (Tomato): 2 (31-60%); percent reduction in plant height at 500 ppm (Spring Barley; [11]): 51%; percent reduction in plant height at 2000 ppm (Apples [8]; 2000 ppm (Foliar), approximately 28 days, Table IX): 23%; percent reduction in plant height at 2000 µg/mL (Apples [8]; soil, 2000 pmm (Root), root drench, approximately 28 days, Table IX): 58.5% |
| CCCCCC(O)(c1cncnc1)C(C)C (stereo not shown) [Compound 3, 2-methyl-1-pentyl-1-(pyrimidin-5-yl)-propan-1-ol] | 2 (31-60%) | 3 (61-100%) | 3 (61-100%) | 3 (61-100%) | 1 (10-30%) | 3 (61-100%) | – | – | 3 (61-100%) | 2 (31-60%) | 2 (31-60%) | 2 (31-60%) | 3 (61-100%) | 1 (10-30%) | 1 (10-30%) | 2 (31-60%) | 3 (61-100%) | 17% | 47% | 11% | T = Tillering or side shooting (Rice [5]): 1 (10-30%); Percent reduction in rice height vs formulation blank at 500 ppm (Rice [7]; [12]): 17%; percent reduction in plant height at 500 ppm (Spring Barley; [13]): 0%; Percentage Reduction in Height of Apples (Compared to formulation blank) (Apples [9]; 2000 ppm): 34.1%; percent reduction in plant height at 2000 ppm (Apples [8]; [14]): 14.2%; percent reduction in plant height at 2000 ppm (Apples [8]; [15]): 62.7% |
| CCCC#CC(O)(c1cncnc1)C(C)C (stereo not shown) [Compound 2, 2-methyl-1-(pent-1-yne)-1-(pyrimidin-5-yl)-propan-1-ol] | 1 (10-30%) | 3 (61-100%) | 3 (61-100%) | 3 (61-100%) | 2 (31-60%) | 2 (31-60%) | – | – | 3 (61-100%) | 2 (31-60%) | 2 (31-60%) | 3 (61-100%) | 3 (61-100%) | – | 1 (10-30%) | 2 (31-60%) | 3 (61-100%) | 18% | 46% | 20% | T = Tillering or side shooting (Rice [5]): 3 (61-100%); I = Interligular or internodal length reduction (Maize): 1 (10-30%); R = Retardation (Maize): 2 (31-60%); Percent reduction in rice height vs formulation blank at 500 ppm (Rice [7]; [12]): 27%; Percent reduction in rice height vs formulation blank at 2000 ppm (Rice [7]; [12]): 69%; percent reduction in plant height at 500 ppm (Spring Barley; [11]): 1%; percent reduction in plant height at 500 ppm (Spring Barley; [13]): 25%; percent reduction in plant height at 2000 ppm (Spring Barley; [13]): 59%; Percentage Reduction in Height of Apples (Compared to formulation blank) (Apples [9]; 500 ppm): 10.5%; Percentage Reduction in Height of Apples (Compared to formulation blank) (Apples [9]; 2000 ppm): 52.1%; percent reduction in plant height at 2000 ppm (Apples [8]; [14]): 41.8%; percent reduction in plant height at 2000 ppm (Apples [8]; [15]): 64.4% |
